Measured values reported in PubChem BioAssay AID1919014 (Molecular Pharmacology Branch, DTP, NCI, 2023).

Test system: NCI-H1341 complex spheroids, percent test/control
Experiment: Anticancer human tumor NCI-H1341 cell line growth inhibition [AhR];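 further: spheroids exposed to agents for seven days before readout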
Details: for IC50: curve of first compound; for viability, T/C: stronger effect = lower value
Text: Multicellular complex tumor spheroid response to aryl hydrocarbon receptor antagonists in combination with a variety of drugs and investigational agents in selected tumor cell lines
The current study was undertaken to assess response to aryl hydrocarbon receptor antagonists in combination with standard-of-care drugs and investigational agents in solid tumor complex spheroid models. Complex spheroids include a stromal component modeled by human endothelial cells (HUVEC) and fibroblasts modeled by human mesenchymal stem cells (MSCs). The concentration ranges selected for each drug and investigational agent were based upon clinically achievable concentrations if the clinical Cmax of the agent was known.
Compounds. The drugs and investigational agents: BAY 2416964 (NSC825713), GNF351 (NSC835774), CH-223191 (NSC835775), CPI-455 (NSC825282), aza-TdCyd (NSC777586), decitabine (NSC127716), belinostat (NSC758774), entinostat (NSC756642), pevonedistat (NSC761192), tazemetostat (NSC777109), talazoparib (NSC765396), olaparib (NSC753686), selinexor (NSC780203), nedisertib (M3814, NSC802822), bortezomib (NSC756655), venetoclax (NSC766270), doxorubicin (NSC123127), elimusertib (BAY189344, NSC800525), ceralasertib (AZD6738, NSC777638), TAK-243 (NSC785004), alisertib (NSC759677), etoposide (NSC141540), topotecan (NSC609699), eribulin (NSC707389), gemcitabine (NSC613327), carboplatin (NSC241240), cisplatin (NSC119875), and SN-38 (NSC673596) were obtained from the National Cancer Institute (NCI) Developmental Therapeutics Program Chemical Repository (32). The FDA-approved anticancer drug set is available from the Developmental Therapeutics Program at https://dtp.cancer.gov/organization/dscb/obtaining/available plates.htm. […] The stock solutions were prepared in dimethyl sulfoxide (DMSO, Sigma-Aldrich, St. Louis, MO, cat. D2650), except for the platinum compounds which were prepared in saline (Quality Biological, Gaithersburg, MD, cat. 114-055-101), at 800-fold the tested concentration and stored at -70 degrees C prior to their use. All drugs and investigational agents were tested over a range starting from a high concentration at or near the clinical Cmax and decreasing in half-log increments. If the clinical Cmax for an agent had not been determined, the highest concentration tested was 10 microM (Table 1).
Cell Culture. All cells were maintained in an incubator at 37 degrees C and 5% CO2 with 95% humidity. The PDC lines were cultured according to standard operating procedures established by the NCI PDMR (https://pdmr.cancer.gov). Briefly, all PDCs were thawed and cultured in Matrigel-coated flasks prepared with a working solution of 1X Ham's F-12 nutrient mix, without supplementation (Invitrogen, Waltham, MA, cat. 11765054), 100 U/mL penicillin-streptomycin (Invitrogen, cat. 15140122), and 2.5% Matrigel (Corning Inc., Corning, NY, cat. 354248) for the first three passages. All PDCs were cultured in complete DMEM/F-12 media containing advanced DMEM/F-12 (Invitrogen, cat. 12634028), 4.9% defined fetal bovine serum, heat inactivated (HyClone Laboratories Inc., Logan, UT, cat. SH30070.03HI), 389 ng/mL hydrocortisone (Sigma-Aldrich, cat. H4001), 9.7 ng/mL human EGF recombinant protein (Invitrogen, cat. PHG0313), 23.4 microg/mL adenine (Sigma-Aldrich, cat. A2786), 97.3 U/mL penicillin-streptomycin (Invitrogen, cat. 15140122), 1.9 mM L-glutamine (Invitrogen, cat. 25030081), and 9.7 microM Y-27632 dihydrochloride (Tocris Bioscience, Bristol, United Kingdom, cat. 1254). The PDCs were cultured in complete DMEM/F12 media without 10 microM Y-27632 dihydrochloride for at least two passages prior to the screen. The established cell lines NCI-H1341 and […] were cultured in DMEM/F-12, HEPES (Invitrogen, cat. 11330032), 5% defined fetal bovine serum (HyClone Laboratories Inc., cat. SH30070.03), ITS premix universal culture supplement [insulin (5 microg/mL), transferrin (5 microg/mL), and selenious acid (5 ng/mL)] […]

[1] = second compound 0.1 µM, first compound 0.0316 µM
[2] = second compound 0.1 µM, first compound 0.1 µM
[3] = second compound 0.1 µM, first compound 0.316 µM
[4] = second compound 0.1 µM, first compound 1 µM
[5] = second compound 0.1 µM, first compound 3.16 µM
[6] = second compound 0.1 µM, first compound 10 µM
[7] = second compound 0.316 µM, first compound 0.0316 µM
[8] = second compound 0.316 µM, first compound 0.1 µM
[9] = second compound 0.316 µM, first compound 0.316 µM
[10] = second compound 0.316 µM, first compound 1 µM
[11] = second compound 0.316 µM, first compound 3.16 µM
[12] = second compound 0.316 µM, first compound 10 µM
[13] = second compound 1 µM, first compound 0.0316 µM
[14] = second compound 1 µM, first compound 0.1 µM
[15] = second compound 1 µM, first compound 0.316 µM
[16] = second compound 1 µM, first compound 1 µM
[17] = second compound 1 µM, first compound 3.16 µM
[18] = second compound 1 µM, first compound 10 µM
[19] = second compound 3.16 µM, first compound 0.0316 µM
[20] = second compound 3.16 µM, first compound 0.1 µM
[21] = second compound 3.16 µM, first compound 0.316 µM
[22] = second compound 3.16 µM, first compound 1 µM
[23] = second compound 3.16 µM, first compound 3.16 µM
[24] = second compound 3.16 µM, first compound 10 µM
[25] = second compound 10 µM, first compound 0.0316 µM
[26] = second compound 10 µM, first compound 0.1 µM
[27] = second compound 10 µM, first compound 0.316 µM
[28] = second compound 10 µM, first compound 1 µM
[29] = second compound 10 µM, first compound 3.16 µM
[30] = second compound 10 µM, first compound 10 µM

Row | SMILES | IC50 (second compound 0.1 µM) [nM] | IC50 (second compound 0.316 µM) [nM] | IC50 (second compound 1 µM) [nM] | IC50 (second compound 3.16 µM) [nM] | IC50 (second compound 10 µM) [nM] | viability, T/C [1] [%] | viability, T/C [2] [%] | viability, T/C [3] [%] | viability, T/C [4] [%] | viability, T/C [5] [%] | viability, T/C [6] [%] | viability, T/C [7] [%] | viability, T/C [8] [%] | viability, T/C [9] [%] | viability, T/C [13] [%] | viability, T/C [14] [%] | viability, T/C [19] [%] | viability, T/C [20] [%] | viability, T/C [25] [%] | viability, T/C [26] [%] | further results
1 | CC1(C)CCC(CN2CCN(c3ccc(C(=O)NS(=O)(=O)c4ccc(NCC5CCOCC5)c([N+](=O)[O-])c4)c(Oc4cnc5[nH]ccc5c4)c3)CC2)=C(c2ccc(Cl)cc2)C1 + CC(CO)NC(=O)c1cc(-c2ccc(Cl)cc2)nn(-c2cnn(C)c2)c1=O | 2370 | 2150 | 1710 | 1810 | 1240 | 66.6 | 74.9 | 71.8 | 71.1 | 43 | 12.9 | 76.7 | 76.5 | 72.3 | 83.4 | 74.4 | 76.5 | 88.8 | 65.7 | 84.7 | viability, T/C [10]: 63.8%; viability, T/C [11]: 43.1%; viability, T/C [12]: 11.7%; viability, T/C [15]: 65.1%; viability, T/C [16]: 61.4%; viability, T/C [17]: 41.4%; viability, T/C [18]: 11.3%; viability, T/C [21]: 83.8%; viability, T/C [22]: 63%; viability, T/C [23]: 36.5%; viability, T/C [24]: 12.4%; viability, T/C [27]: 65.6%; viability, T/C [28]: 54.1%; viability, T/C [29]: 30.2%; viability, T/C [30]: 9.65%
2 | COc1cc(Nc2ncc3c(n2)-c2ccc(Cl)cc2C(c2c(F)cccc2OC)=NC3)ccc1C(=O)O + CC(CO)NC(=O)c1cc(-c2ccc(Cl)cc2)nn(-c2cnn(C)c2)c1=O | < 31.6 | < 31.6 | < 31.6 | < 31.6 | < 31.6 | 39.7 | 45.7 | 37.7 | 34.2 | 28.7 | 28.6 | 50.5 | 34.5 | 35.5 | 46.4 | 44.2 | 38.4 | 35.4 | 35.6 | 39.7 | viability, T/C [10]: 38.2%; viability, T/C [11]: 29.5%; viability, T/C [12]: 27.6%; viability, T/C [15]: 37.2%; viability, T/C [16]: 37.5%; viability, T/C [17]: 33.1%; viability, T/C [18]: 26.7%; viability, T/C [21]: 34%; viability, T/C [22]: 35.8%; viability, T/C [23]: 30.6%; viability, T/C [24]: 27.6%; viability, T/C [27]: 39%; viability, T/C [28]: 29.2%; viability, T/C [29]: 27%; viability, T/C [30]: 28.2%
3 | Cn1ncnc1C1c2n[nH]c(=O)c3cc(F)cc(c23)NC1c1ccc(F)cc1 (stereo not given) + CC(CO)NC(=O)c1cc(-c2ccc(Cl)cc2)nn(-c2cnn(C)c2)c1=O | > 100 | > 100 | > 100 | > 100 | > 100 | 83.2 | 77.6 |  |  |  |  | 91.8 | 72.3 |  | 80.5 | 73.9 | 76.2 | 65.9 | 66.1 | 69.2 | viability, T/C (second compound 0.1 µM, first compound 0.000316 µM): 79.2%; viability, T/C (second compound 0.1 µM, first compound 0.001 µM): 83.4%; viability, T/C (second compound 0.1 µM, first compound 0.00316 µM): 84%; viability, T/C (second compound 0.1 µM, first compound 0.01 µM): 73.5%; viability, T/C (second compound 0.316 µM, first compound 0.000316 µM): 85%; viability, T/C (second compound 0.316 µM, first compound 0.001 µM): 95.7%; viability, T/C (second compound 0.316 µM, first compound 0.00316 µM): 88.8%; viability, T/C (second compound 0.316 µM, first compound 0.01 µM): 76.9%; viability, T/C (second compound 1 µM, first compound 0.000316 µM): 72.5%; viability, T/C (second compound 1 µM, first compound 0.001 µM): 95.4%; viability, T/C (second compound 1 µM, first compound 0.00316 µM): 77.5%; viability, T/C (second compound 1 µM, first compound 0.01 µM): 85.7%; viability, T/C (second compound 3.16 µM, first compound 0.000316 µM): 87.5%; viability, T/C (second compound 3.16 µM, first compound 0.001 µM): 93.8%; viability, T/C (second compound 3.16 µM, first compound 0.00316 µM): 77.1%; viability, T/C (second compound 3.16 µM, first compound 0.01 µM): 62.4%; viability, T/C (second compound 10 µM, first compound 0.000316 µM): 72.4%; viability, T/C (second compound 10 µM, first compound 0.001 µM): 84.2%; viability, T/C (second compound 10 µM, first compound 0.00316 µM): 81%; viability, T/C (second compound 10 µM, first compound 0.01 µM): 65.2%
4 | NS(=O)(=O)OCC1CC(n2ccc3c(NC4CCc5ccccc54)ncnc32)CC1O (stereo not given) + CC(CO)NC(=O)c1cc(-c2ccc(Cl)cc2)nn(-c2cnn(C)c2)c1=O | < 31.6 | < 31.6 | < 31.6 | < 31.6 | < 31.6 | 33 | 28 | 11 | 5.48 | 5.17 | 3.34 | 37.6 | 28.2 | 13.5 | 39.7 | 31.2 | 32.1 | 27.6 | 29.1 | 23.1 | viability, T/C [10]: 6.9%; viability, T/C [11]: 3.38%; viability, T/C [12]: 3.76%; viability, T/C [15]: 13.1%; viability, T/C [16]: 6.82%; viability, T/C [17]: 4.46%; viability, T/C [18]: 3.84%; viability, T/C [21]: 14.8%; viability, T/C [22]: 7.34%; viability, T/C [23]: 5.49%; viability, T/C [24]: 4.2%; viability, T/C [27]: 13.8%; viability, T/C [28]: 7.32%; viability, T/C [29]: 5.1%; viability, T/C [30]: 2.95%
